Experimental data published in patent publication US9546188B2, “Complexes of germanium with amino acids and carboxylic acids and method for preparing same” (OBSCHESTVO S OGRANICHENNOI OTVETSTVENNOSTYU “WDS FARMA”, priority 2012, dated 2017).

Columns and labels:
[1] = room temperature
[2] = test system: and malignant tumors of the uterus; details: six patients, 100 mg orally twice daily; cited from earlier work
[3] = test system: oval cancer and malignant tumors of the uterus; details: cited from earlier work

| water solubility [1] | SMILES | exudate in the abdominal cavity or internal pelvic cavity [2] | infiltration in post-operational examination ([3]; examination one month later) | health of patients ([3]; six patients, 100 mg orally as 10% solution twice daily, tumors removed surgically) | toxic side effects ([3]; six patients, 100 mg orally twice daily) |
| --- | --- | --- | --- | --- | --- |
| 0.2% | O=C(O)CCCCCCCC(=O)O [azelaic acid] |  |  |  |  |
|  | N[C@@H](CC(=O)O)C(=O)O.[Ge] [germanium compound with aspartic acid] | five patients did not show exudate | None patients showed infiltration | noticeable improvement in health | no toxic side effects |
